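Method: 48-hour compound exposure of cells in 96-well plates, five concentrations, linear interpolation of endpoints. TGI is the concentration that stops growth completely.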
What was measured:
Assay in all cases: DTP human tumour cell line panel, 48 h
[1] = system: SK-MEL-2 melanoma
[2] = system: K-562 leukemia
[3] = system: SF-268 CNS
[4] = system: CAKI-1 renal
[5] = system: HS 578T breast
[6] = system: SNB-19 CNS
[7] = system: MDA-MB-435
[8] = system: HOP-62 NSCLC
[9] = system: HL-60(TB) leukemia
[10] = system: SK-OV-3 ovarian
[11] = system: SR leukemia
[12] = system: UO-31 renal
[13] = system: RPMI-8226 leukemia
[14] = system: A498 renal
[15] = system: HCT-15 colon
[16] = system: IGROV1 ovarian
[17] = system: OVCAR-3 ovarian
[18] = system: UACC-62 melanoma
[19] = system: MDA-N
[20] = system: SF-295 CNS
[21] = system: ACHN renal
[22] = system: TK-10 renal
[23] = system: MALME-3M melanoma
[24] = system: HCT-116 colon
[25] = system: SK-MEL-28 melanoma
[26] = system: SW-620 colon
[27] = system: NCI/ADR-RES ovarian
[28] = system: NCI-H522 lung
[29] = system: OVCAR-5 ovarian
[30] = system: M14 melanoma
[31] = system: HCC-2998 colon
[32] = system: HOP-92 NSCLC
[33] = system: NCI-H23 lung
[34] = system: SK-MEL-5 melanoma
[35] = system: LOX IMVI melanoma
[36] = system: A549 NSCLC
[37] = system: NCI-H460 lung
[38] = system: DU-145 prostate
[39] = system: 786-0 renal
[40] = system: HT29 colon
[41] = system: UACC-257 melanoma
[42] = system: SN12C renal
[43] = system: MCF7 breast
[44] = system: EKVX NSCLC
[45] = system: RXF 393 renal
[46] = system: BT-549 breast
[47] = system: MOLT-4 leukemia
[48] = system: OVCAR-4 ovarian
[49] = system: T-47D breast
[50] = system: OVCAR-8 ovarian
[51] = system: KM12 colon
[52] = system: PC-3 prostate
[53] = system: SNB-75 CNS
[54] = system: MDA-MB-231 breast
[55] = system: SF-539 CNS
[56] = system: COLO 205 colon
[57] = system: CCRF-CEM leukemia
[58] = system: NCI-H226 lung
[59] = system: U251 CNS

Question: `COc1c(O)cc(C(=O)O[C@@H]2Cc3c(O)cc(O)cc3O[C@@H]2c2cc(O)c(O)c(O)c2)cc1O` was tested. Which TGI [1] did it give?
Answer: > 100 µM

Question: What about the TGI [2] of the same compound?
Answer: 46.8 µM

Question: And the TGI [3]?
Answer: 46.7 µM

Question: What about the TGI [4] of the same compound?
Answer: > 100 µM

Question: What about the TGI [5] of the same compound?
Answer: > 100 µM

Question: And the TGI [6]?
Answer: 43 µM

Question: And the TGI [7]?
Answer: 33.3 µM

Question: What about the TGI [8] of the same compound?
Answer: 92.3 µM

Question: What about the TGI [9] of the same compound?
Answer: 63 µM

Question: And the TGI [10]?
Answer: > 100 µM

Question: What about the TGI [11] of the same compound?
Answer: 95.8 µM

Question: What about the TGI [12] of the same compound?
Answer: 50.5 µM

Question: What about the TGI [13] of the same compound?
Answer: 57.7 µM

Question: What about the TGI [14] of the same compound?
Answer: > 100 µM

Question: What about the TGI [15] of the same compound?
Answer: 86.2 µM

Question: And the TGI [16]?
Answer: > 100 µM

Question: What about the TGI [17] of the same compound?
Answer: > 100 µM

Question: And the TGI [18]?
Answer: 78.4 µM

Question: And the TGI [19]?
Answer: 58.4 µM

Question: What about the TGI [20] of the same compound?
Answer: 46.2 µM

Question: And the TGI [21]?
Answer: > 100 µM

Question: What about the TGI [22] of the same compound?
Answer: > 100 µM

Question: And the TGI [23]?
Answer: > 100 µM

Question: What about the TGI [24] of the same compound?
Answer: 35.4 µM

Question: And the TGI [25]?
Answer: > 100 µM

Question: What about the TGI [26] of the same compound?
Answer: 59.8 µM

Question: And the TGI [27]?
Answer: > 100 µM

Question: What about the TGI [28] of the same compound?
Answer: 54.6 µM

Question: And the TGI [29]?
Answer: > 100 µM

Question: And the TGI [30]?
Answer: > 100 µM

Question: What about the TGI [31] of the same compound?
Answer: > 100 µM

Question: And the TGI [32]?
Answer: > 100 µM

Question: And the TGI [33]?
Answer: 98.5 µM

Question: What about the TGI [34] of the same compound?
Answer: 44.3 µM

Question: And the TGI [35]?
Answer: 40.2 µM

Question: And the TGI [36]?
Answer: 51.2 µM

Question: And the TGI [37]?
Answer: 66.7 µM

Question: And the TGI [38]?
Answer: 46.7 µM

Question: What about the TGI [39] of the same compound?
Answer: 33.8 µM

Question: And the TGI [40]?
Answer: 37.1 µM

Question: And the TGI [41]?
Answer: > 100 µM

Question: And the TGI [42]?
Answer: 37.3 µM

Question: And the TGI [43]?
Answer: 42 µM

Question: And the TGI [44]?
Answer: 61.6 µM

Question: And the TGI [45]?
Answer: 37.2 µM

Question: What about the TGI [46] of the same compound?
Answer: 65.2 µM

Question: And the TGI [47]?
Answer: 56.8 µM

Question: And the TGI [48]?
Answer: 46.4 µM

Question: What about the TGI [49] of the same compound?
Answer: 86 µM

Question: And the TGI [50]?
Answer: 54.1 µM

Question: And the TGI [51]?
Answer: 39 µM

Question: And the TGI [52]?
Answer: > 100 µM

Question: Which results are given for `N=c1oc2c(Cl)cc(Cl)cc2cc1C(=O)Nc1ccccn1`?
Answer: TGI [1]: > 100 µM; TGI [2]: > 100 µM; TGI [3]: > 100 µM; TGI [4]: > 100 µM; TGI [5]: 48.4 µM; TGI [6]: > 100 µM; TGI [7]: > 100 µM; TGI [8]: > 100 µM; TGI [9]: > 100 µM; TGI [10]: > 100 µM; TGI [11]: 65.9 µM; TGI [12]: > 100 µM; TGI [13]: 60.8 µM; TGI [14]: > 100 µM; TGI [15]: > 100 µM; TGI [17]: 57.5 µM; TGI [18]: 61.4 µM; TGI [19]: > 100 µM; TGI [53]: 46.1 µM; TGI [20]: > 100 µM; TGI [54]: > 100 µM; TGI [21]: 64.4 µM; TGI [22]: > 100 µM; TGI [23]: > 100 µM; TGI [24]: > 100 µM; TGI [55]: > 100 µM; TGI [25]: > 100 µM; TGI [26]: > 100 µM; TGI [27]: > 100 µM; TGI [56]: > 100 µM; TGI [57]: > 100 µM; TGI [29]: > 100 µM; TGI [30]: > 100 µM; TGI [31]: > 100 µM; TGI [33]: > 100 µM; TGI [34]: > 100 µM; TGI [36]: > 100 µM; TGI [37]: > 100 µM; TGI [38]: > 100 µM; TGI [39]: > 100 µM; TGI [40]: > 100 µM; TGI [41]: > 100 µM; TGI [42]: > 100 µM; TGI [58]: > 100 µM; TGI [43]: > 100 µM; TGI [44]: > 100 µM; TGI [45]: 47.7 µM; TGI [46]: > 100 µM; TGI [47]: > 100 µM; TGI [48]: > 100 µM; TGI [59]: > 100 µM; TGI [49]: > 100 µM; TGI [51]: > 100 µM; TGI [52]: > 100 µM

Source: PubChem BioAssay (NCI)
